Experimental data as given in patent US20250206727A1, “HETEROCYCLIC SUBSTITUTED AROMATIC COMPOUND, PREPARATION METHOD THEREFOR, HERBICIDAL COMPOSITION AND APPLICATION” (QINGDAO KINGAGROOT CHEMICAL COMPOUND CO., LTD., priority 2022, published 2025).

Tests used:
Experiment in all cases: Post-emergence test on weeds (greenhouse, spray at 2-3 leaf stage)
Format in all cases: in vivo
Set-up in all cases: key: Level 10: completely dead; Level 9: growth control rate greater than or equal to 90% and less than 100%; Level 8: growth control rate greater than or equal to 80% and less than 90%; Level 7: growth control rate greater than or equal to 70% and less than 80%; Level 6: growth control rate greater than or equal to 60% and less than 70%; Level 5: growth control rate greater than or equal to 50% and less than 60%; Level 4: growth control rate greater than or equal to 40% and less than 50%; Level 3: growth control rate greater than or equal to 30% and less than 40%; Level 2: growth control rate greater than or equal to 20% and less than 30%; Level 1: growth control rate less than 20%; Level 0: no effect
Conditions in all cases: 3 weeks after application
Abutilon theophrasti = system: Abutilon theophrasti
From the text: (§1) The activity level criteria for plant damage (i.e., growth control rate) are as follows: • Level 10: completely dead; • Level 9: growth control rate greater than or equal to 90% and less than 100%; • Level 8: growth control rate greater than or equal to 80% and less than 90%; • Level 7: growth control rate greater than or equal to 70% and less than 80%; • Level 6: growth control rate greater than or equal to 60% and less than 70%; • Level 5: growth control rate greater than or equal to 50% and less than 60%; • Level 4: growth control rate greater than or equal to 40% and less than 50%; • Level 3: growth control rate greater than or equal to 30% and less than 40%; • Level 2: growth control rate greater than or equal to 20% and less than 30%; • Level 1: growth control rate less than 20%; • Level 0: no effect.
(§2) The above growth control rates are fresh weight control rates.
(§3) Monocotyledonous and dicotyledonous weed seeds (Descurainia sophia, Capsella bursa-pastoris, Abutilon theophrasti, Galium spurium, Stellaria media, Lithospermum arvense, Rorippa indica, Alopecurus aequalis, Alopecurus japonicus, Eleusine indica, Beckmannia syzigachne, Sclerochloa dura, Erigeron canadensis, Phleum paniculatum, Veronica polita, Bromus japonicus, Aegilops tauschii, Phalaris arundinacea, Amaranthus retrofexus, Chenopodium, Commelina communis, Cichorium endivia, Convolvulus arvensis, Cirsium arvense, Solanum nigrum, Acalypha australis, Digitaria sanguinalis, Echinochloa crus-galli, Setaria viridis, Setaa pumila, Lepochloa chinensis, Monochona vaginalis, Sagitta trifolia, Schoenoplectiella juncoides, Cypenus rotundus, Cyperus ira, Cyperus difformis, Fimbristylis, Portulaca oleracea, Xanthium sibiricum, Ipomoea nil, Eschenbachia japonica, etc.) and major crop seeds (wheat, maize, paddy rice, soybean, cotton, oilseed rape, millet, sorghum, potato, sesame, castor plant, etc.) were placed in plastic pots filled with soil and then covered with 0.5-2 cm of soil to allow them to grow in a favorable greenhouse environment. Two weeks after sowing, the test plants were treated at the stage of 2-3 leaves. The test compounds of the present invention were individually dissolved with acetone, then added with Tween® 80, with 1.5 L/ha of methyl oleate emulsifiable concentrate as a synergist, diluted into solutions of certain concentrations using certain amount of water, and sprayed to the plants using a spray tower. After drug application, the experimental results on weeds were collected after 3 weeks of cultivation in a greenhouse. The compounds were applied at 500, 250, […], 15, and 7.5 g a.i./ha in triplicate, and the results were averaged.

Amaranthus retroflexus = system: Amaranthus retroflexus
From the text: as §1, §2, §3

Digitaria sanguinalis = system: Digitaria sanguinalis
From the text: as §1, §2, §3

Echinochloa crus-galli = system: Echinochloa crus-galli
From the text: as §1, §2, §3

Setaria viridis = system: Setaria viridis
From the text: as §1, §2, §3

Veronica polita = system: Veronica polita
From the text: as §1, §2, §3

COC(=O)C1(C)ON=C(c2cc(-c3ncc(OC(F)F)cc3Cl)c(F)cc2Cl)O1 (stereo not drawn) [Compound 3]
10: activity level (fresh weight growth control rate), Abutilon theophrasti (Abutilon theophrasti; 60 g a.i./ha) | activity level (fresh weight growth control rate), Amaranthus retroflexus (Amaranthus retroflexus; 60 g a.i./ha) | activity level (fresh weight growth control rate), Digitaria sanguinalis (Digitaria sanguinalis; 60 g a.i./ha) | activity level (fresh weight growth control rate), Echinochloa crus-galli (Echinochloa crus-galli; 60 g a.i./ha) | activity level (fresh weight growth control rate), Setaria viridis (Setaria viridis; 60 g a.i./ha) | activity level (fresh weight growth control rate), Veronica polita (Veronica polita; 60 g a.i./ha)

COC(=O)C1(C)ON=C(c2cc(-c3ncc(C(F)(F)F)c(F)c3F)c(F)cc2Cl)O1 (stereo not drawn) [Compound 4]
10: activity level (fresh weight growth control rate), Abutilon theophrasti (Abutilon theophrasti; 60 g a.i./ha) | activity level (fresh weight growth control rate), Amaranthus retroflexus (Amaranthus retroflexus; 60 g a.i./ha) | activity level (fresh weight growth control rate), Digitaria sanguinalis (Digitaria sanguinalis; 60 g a.i./ha) | activity level (fresh weight growth control rate), Echinochloa crus-galli (Echinochloa crus-galli; 60 g a.i./ha) | activity level (fresh weight growth control rate), Setaria viridis (Setaria viridis; 60 g a.i./ha) | activity level (fresh weight growth control rate), Veronica polita (Veronica polita; 60 g a.i./ha)

COC(=O)C1(C)ON=C(c2cc(-c3ncc(Br)cc3Cl)c(F)cc2Cl)O1 (stereo not drawn) [Compound 5]
10: activity level (fresh weight growth control rate), Abutilon theophrasti (Abutilon theophrasti; 60 g a.i./ha) | activity level (fresh weight growth control rate), Amaranthus retroflexus (Amaranthus retroflexus; 60 g a.i./ha) | activity level (fresh weight growth control rate), Digitaria sanguinalis (Digitaria sanguinalis; 60 g a.i./ha) | activity level (fresh weight growth control rate), Echinochloa crus-galli (Echinochloa crus-galli; 60 g a.i./ha) | activity level (fresh weight growth control rate), Setaria viridis (Setaria viridis; 60 g a.i./ha) | activity level (fresh weight growth control rate), Veronica polita (Veronica polita; 60 g a.i./ha)

COC(=O)C1(C)ON=C(c2cc(-c3ncc(C(F)(F)F)cc3F)c(F)cc2Cl)O1 (stereo not drawn) [Compound 6]
10: activity level (fresh weight growth control rate), Abutilon theophrasti (Abutilon theophrasti; 60 g a.i./ha) | activity level (fresh weight growth control rate), Amaranthus retroflexus (Amaranthus retroflexus; 60 g a.i./ha) | activity level (fresh weight growth control rate), Digitaria sanguinalis (Digitaria sanguinalis; 60 g a.i./ha) | activity level (fresh weight growth control rate), Echinochloa crus-galli (Echinochloa crus-galli; 60 g a.i./ha) | activity level (fresh weight growth control rate), Setaria viridis (Setaria viridis; 60 g a.i./ha) | activity level (fresh weight growth control rate), Veronica polita (Veronica polita; 60 g a.i./ha)

COC(=O)C1(C)ON=C(c2cc(-c3ncc(F)cc3F)c(F)cc2Cl)O1 (stereo not drawn) [Compound 7]
10: activity level (fresh weight growth control rate), Abutilon theophrasti (Abutilon theophrasti; 60 g a.i./ha) | activity level (fresh weight growth control rate), Amaranthus retroflexus (Amaranthus retroflexus; 60 g a.i./ha) | activity level (fresh weight growth control rate), Digitaria sanguinalis (Digitaria sanguinalis; 60 g a.i./ha) | activity level (fresh weight growth control rate), Echinochloa crus-galli (Echinochloa crus-galli; 60 g a.i./ha) | activity level (fresh weight growth control rate), Setaria viridis (Setaria viridis; 60 g a.i./ha) | activity level (fresh weight growth control rate), Veronica polita (Veronica polita; 60 g a.i./ha)

COC(=O)C1(C)ON=C(c2cc(-c3ncccc3Cl)c(F)cc2Cl)O1 (stereo not drawn) [Compound 8]
10: activity level (fresh weight growth control rate), Abutilon theophrasti (Abutilon theophrasti; 60 g a.i./ha) | activity level (fresh weight growth control rate), Amaranthus retroflexus (Amaranthus retroflexus; 60 g a.i./ha) | activity level (fresh weight growth control rate), Digitaria sanguinalis (Digitaria sanguinalis; 60 g a.i./ha) | activity level (fresh weight growth control rate), Echinochloa crus-galli (Echinochloa crus-galli; 60 g a.i./ha) | activity level (fresh weight growth control rate), Setaria viridis (Setaria viridis; 60 g a.i./ha) | activity level (fresh weight growth control rate), Veronica polita (Veronica polita; 60 g a.i./ha)

COC(=O)C1(C)ON=C(c2cc(-c3ncc(C(F)(F)F)cc3Cl)c(F)cc2Br)O1 (stereo not drawn) [Compound 9]
10: activity level (fresh weight growth control rate), Abutilon theophrasti (Abutilon theophrasti; 60 g a.i./ha) | activity level (fresh weight growth control rate), Amaranthus retroflexus (Amaranthus retroflexus; 60 g a.i./ha) | activity level (fresh weight growth control rate), Digitaria sanguinalis (Digitaria sanguinalis; 60 g a.i./ha) | activity level (fresh weight growth control rate), Echinochloa crus-galli (Echinochloa crus-galli; 60 g a.i./ha) | activity level (fresh weight growth control rate), Setaria viridis (Setaria viridis; 60 g a.i./ha) | activity level (fresh weight growth control rate), Veronica polita (Veronica polita; 60 g a.i./ha)

COC(=O)C1(C)ON=C(c2cc(-c3ncc(C(C)(F)F)cc3Cl)c(F)cc2Cl)O1 (stereo not drawn) [Compound 10]
10: activity level (fresh weight growth control rate), Abutilon theophrasti (Abutilon theophrasti; 60 g a.i./ha) | activity level (fresh weight growth control rate), Amaranthus retroflexus (Amaranthus retroflexus; 60 g a.i./ha) | activity level (fresh weight growth control rate), Digitaria sanguinalis (Digitaria sanguinalis; 60 g a.i./ha) | activity level (fresh weight growth control rate), Echinochloa crus-galli (Echinochloa crus-galli; 60 g a.i./ha) | activity level (fresh weight growth control rate), Setaria viridis (Setaria viridis; 60 g a.i./ha) | activity level (fresh weight growth control rate), Veronica polita (Veronica polita; 60 g a.i./ha)

COC(=O)C1(C)ON=C(c2cc(-c3ncc(Cl)cc3Cl)c(F)cc2Cl)O1 (stereo not drawn) [Compound 11]
10: activity level (fresh weight growth control rate), Abutilon theophrasti (Abutilon theophrasti; 60 g a.i./ha) | activity level (fresh weight growth control rate), Amaranthus retroflexus (Amaranthus retroflexus; 60 g a.i./ha) | activity level (fresh weight growth control rate), Digitaria sanguinalis (Digitaria sanguinalis; 60 g a.i./ha) | activity level (fresh weight growth control rate), Echinochloa crus-galli (Echinochloa crus-galli; 60 g a.i./ha) | activity level (fresh weight growth control rate), Setaria viridis (Setaria viridis; 60 g a.i./ha) | activity level (fresh weight growth control rate), Veronica polita (Veronica polita; 60 g a.i./ha)

COC(=O)C1(C)ON=C(c2cc(-c3ncc(C)cc3Cl)c(F)cc2Cl)O1 (stereo not drawn) [Compound 12]
10: activity level (fresh weight growth control rate), Abutilon theophrasti (Abutilon theophrasti; 60 g a.i./ha) | activity level (fresh weight growth control rate), Amaranthus retroflexus (Amaranthus retroflexus; 60 g a.i./ha) | activity level (fresh weight growth control rate), Digitaria sanguinalis (Digitaria sanguinalis; 60 g a.i./ha) | activity level (fresh weight growth control rate), Echinochloa crus-galli (Echinochloa crus-galli; 60 g a.i./ha) | activity level (fresh weight growth control rate), Setaria viridis (Setaria viridis; 60 g a.i./ha) | activity level (fresh weight growth control rate), Veronica polita (Veronica polita; 60 g a.i./ha)

COC(=O)C1(C)ON=C(c2cc(-c3ncc(Cl)cc3F)c(F)cc2Cl)O1 (stereo not drawn) [Compound 13]
10: activity level (fresh weight growth control rate), Abutilon theophrasti (Abutilon theophrasti; 60 g a.i./ha) | activity level (fresh weight growth control rate), Amaranthus retroflexus (Amaranthus retroflexus; 60 g a.i./ha) | activity level (fresh weight growth control rate), Digitaria sanguinalis (Digitaria sanguinalis; 60 g a.i./ha) | activity level (fresh weight growth control rate), Echinochloa crus-galli (Echinochloa crus-galli; 60 g a.i./ha) | activity level (fresh weight growth control rate), Setaria viridis (Setaria viridis; 60 g a.i./ha) | activity level (fresh weight growth control rate), Veronica polita (Veronica polita; 60 g a.i./ha)

COC(=O)C1(C)ON=C(c2cc(-c3ncc(F)cc3Cl)c(F)cc2Cl)O1 (stereo not drawn) [Compound 14]
10: activity level (fresh weight growth control rate), Abutilon theophrasti (Abutilon theophrasti; 60 g a.i./ha) | activity level (fresh weight growth control rate), Amaranthus retroflexus (Amaranthus retroflexus; 60 g a.i./ha) | activity level (fresh weight growth control rate), Digitaria sanguinalis (Digitaria sanguinalis; 60 g a.i./ha) | activity level (fresh weight growth control rate), Echinochloa crus-galli (Echinochloa crus-galli; 60 g a.i./ha) | activity level (fresh weight growth control rate), Setaria viridis (Setaria viridis; 60 g a.i./ha) | activity level (fresh weight growth control rate), Veronica polita (Veronica polita; 60 g a.i./ha)

COC(=O)C1(C)ON=C(c2cc(-c3ncc(C(F)(F)F)cc3Cl)c(F)cc2Cl)O1 (stereo not drawn) [Compound 15]
10: activity level (fresh weight growth control rate), Abutilon theophrasti (Abutilon theophrasti; 15 g a.i./ha) | activity level (fresh weight growth control rate), Amaranthus retroflexus (Amaranthus retroflexus; 15 g a.i./ha) | activity level (fresh weight growth control rate), Digitaria sanguinalis (Digitaria sanguinalis; 15 g a.i./ha) | activity level (fresh weight growth control rate), Echinochloa crus-galli (Echinochloa crus-galli; 15 g a.i./ha) | activity level (fresh weight growth control rate), Setaria viridis (Setaria viridis; 15 g a.i./ha) | activity level (fresh weight growth control rate), Veronica polita (Veronica polita; 15 g a.i./ha)
